Assay results as given in patent US11279733B2, “Peptide antibiotics” (priority 2017, dated 2022).
In brackets after ≈: the same amount, converted by molar mass. Read-outs that look alike come from different tables or passages of the source. Positions of bridges follow the written chain, without caps; N, C: chain ends. Non-standard residues stand in square brackets, D forms with d. Residues, ends and D or L forms follow the SMILES beside them. *: point of attachment. Decanoyl(3R-OH) = CCCCCCC[C@@H](O)CC(=O)*; Phe(4-NH2) = Nc1ccc(C[C@H](N)C(=O)O)cc1; X13 = CCCCCCCCCC(O)CC(=O)*; dDab = NCC[C@@H](N)C(=O)O; Dab = NCC[C@H](N)C(=O)O; Pentanoyl = CCCCC(=O)*

Columns and labels:
in vitro = conditions: human
Protocol: Cytotoxicity of the synthesised peptides was evaluated by comparison with commercially available colistin (polymyxin E), polymyxin B (Sigma chemical Co., St. Louis, Mo., U.S.A.) and synthetic octapeptin C4 by conducting lactate dehydrogenase (LDH) assay. CC50 values calculated based on curve fitting of dose dependent inhibition of cell growth represented the cytotoxicity of the peptide. Human kidney 2 (HK2) cells were seeded as 2000 cells per well in a 384 well cell culture plate in a final volume of 20 μL in DMEM/F12 medium (Invitrogen #11330057), in which 10% of FBS was added. Cells were incubated for 24 hours at 37° C., 5% CO2 to allow cells to attach to the plates. Similar conditions were employed for HEK293 and HepG2 cytotoxicity assays.
Colistin and polymyxin B were tested from a range of 2 mM to 0.9 μM. 120 μL of the 1 mM stock solutions in water of each synthesised peptide were freeze-dried and processed for LDH assay. After freeze-dry procedure, the compounds were reconstituted into 600 μM solutions using culture media. All tested compounds were diluted from 600 μM to 0.27 μM in 3-fold dilutions. Then 20 μL of each dilution was added into 20 uL of culture medium in quadruplicate to reach the final concentrations. The cells were incubated with the compounds for 24 h at 37° C., 5% CO2. After the incubation, 5 μL of culture medium was added to 50 μL of LDH assay buffer and incubated for 1 h at room temperature. The absorbance was read at 450 nm using Polarstar. The data was then analysed by Prism software. […] Nephrotoxicity Assessment in Human Proximal Tubule Cells.

E. coli ATCC 25922 = conditions: ATCC 25922
Outline: (§1)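 Mid-log cultures grown in Mueller Hinton broth at 37° C were tested by 2-fold broth microdilution at 5×10^5 CFU/mL final. Compounds were dissolved in water and tested over a final range of 32 to 0.015 μg/mL.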

[1] = tested on: P. aeruginosa GN_043, PmxR
Outline: as §1

A. baumannii ATCC 19606 = conditions: ATCC 19606
Outline: as §1

[2] = tested on: K. pneumoniae ATCC BAA-2146, NDM-1 pos; conditions: ATCC BAA-2146
Outline: as §1

K. pneumoniae ATCC 13883 = conditions: ATCC 13883
Outline: as §1

P. aeruginosa ATCC 27853 = conditions: ATCC 27853
Outline: as §1

[3] = tested on: K. pneumoniae ATCC 700603, MDR; conditions: ATCC 700603
Outline: as §1

[4] = tested on: P. aeruginosa GN_105, PmxR; conditions: GN 105, PmxR
Outline: as §1

[5] = tested on: S. aureus ATCC 25923, MSSA; conditions: ATCC 25923
Outline: as §1

Row | Compound | CC50 at 24 h (in vitro) [µM] | MIC E. coli ATCC 25922 (E. coli ATCC 25922) [µg/mL] | MIC P. aeruginosa GN_043, PmxR ([1]; P. aeruginosa GN_043, PmxR) [µg/mL] | MIC A. baumannii ATCC 19606 (A. baumannii ATCC 19606) [µg/mL] | MIC K. pneumoniae ATCC BAA-2146, NDM-1 pos [2] [µg/mL] | MIC K. pneumoniae ATCC 13883 (K. pneumoniae ATCC 13883) [µg/mL] | MIC P. aeruginosa ATCC 27853 (P. aeruginosa ATCC 27853) [µg/mL] | MIC K. pneumoniae ATCC 700603, MDR [3] [µg/mL] | MIC, E. coli ATCC 25922 (E. coli ATCC 25922) [µg/mL] | MIC P. aeruginosa GN_043, PmxR ([1]; Table 6, polymyxin-resistant) [µg/mL] | MIC, A. baumannii ATCC 19606 (A. baumannii ATCC 19606) [µg/mL] | MIC, K. pneumoniae ATCC BAA-2146, NDM-1 pos [2] [µg/mL] | MIC, K. pneumoniae ATCC 13883 (K. pneumoniae ATCC 13883) [µg/mL] | MIC, P. aeruginosa ATCC 27853 (P. aeruginosa ATCC 27853) [µg/mL] | MIC, K. pneumoniae ATCC 700603, MDR [3] [µg/mL] | MIC P. aeruginosa GN_043, PmxR [1] [µg/mL] | MIC P. aeruginosa GN_043, PmxR ([1]; polymyxin-resistant) [µg/mL] | MIC P. aeruginosa GN_105, PmxR [4] [µg/mL] | MIC S. aureus ATCC 25923, MSSA [5] [µg/mL]
1 | CCCCCCC[C@@H](O)CC(=O)N[C@H](CO)C(=O)N[C@H]1CCNC(=O)[C@H]([C@@H](C)O)NC(=O)[C@H](CCN)NC(=O)[C@H](CCN)NC(=O)[C@H](CC(C)C)NC(=O)[C@@H](Cc2ccccc2)NC(=O)[C@H](CCN)NC1=O [compound 754, 3(R)OH-nC9CO-D-Ser-cyc[L-Dab-L-Dab-D-Phe-L-Leu-L-Dab-L-Dab-L-Thr]] ({Decanoyl(3R-OH)}-[dS][Dab][Dab][dF]L[Dab][Dab]T; lactam 2-C) | 154 | 32 (≈ 31.4 µM) | >32 | 16 (≈ 15.7 µM) | 32 (≈ 31.4 µM) | 32 (≈ 31.4 µM) | 4 (≈ 3.92 µM) | 32 (≈ 31.4 µM) |  |  |  |  |  |  |  |  |  |  | 
2 | CCCCCCC[C@@H](O)CC(=O)N[C@H](CO)C(=O)N[C@H]1CCNC(=O)[C@H](CC(C)C)NC(=O)[C@H](CCN)NC(=O)[C@H](CCN)NC(=O)[C@H](CC(C)C)NC(=O)[C@@H](Cc2ccccc2)NC(=O)[C@H](CCN)NC1=O [compound 918, 3(R)OH-nC9CO-D-Ser-cyc[L-Dab-L-Dab-D-Phe-L-Leu-L-Dab-L-Dab-L-Leu]] ({Decanoyl(3R-OH)}-[dS][Dab][Dab][dF]L[Dab][Dab]L; lactam 2-C) | 113 |  |  |  |  |  |  |  | 8 (≈ 7.76 µM) | >32 | 4 (≈ 3.88 µM) | 4 (≈ 3.88 µM) | 8 (≈ 7.76 µM) | 8 (≈ 7.76 µM) | 8 (≈ 7.76 µM) |  |  |  | 
3 | CCCCC(=O)N[C@H](CCN)C(=O)N[C@H]1CCNC(=O)[C@H](CC(C)C)NC(=O)[C@H](CCN)NC(=O)[C@H](CCN)NC(=O)[C@H](CC(C)C)NC(=O)[C@@H](Cc2ccccc2)NC(=O)[C@H](CCN)NC1=O [compound 919, C4CO-D-Dab-cyc[L-Dab-L-Dab-D-Phe-L-Leu-L-Dab-L-Dab-L-Leu]] (Pentanoyl-[dDab][Dab][Dab][dF]L[Dab][Dab]L; lactam 2-C) | > 300 | 32 (≈ 33.4 µM) |  | 16 (≈ 16.7 µM) | 16 (≈ 16.7 µM) | 32 (≈ 33.4 µM) | 2 (≈ 2.09 µM) | >32 |  |  |  |  |  |  |  | >32 |  |  | 
4 | CCCCCCC[C@@H](O)CC(=O)N[C@H](CCN)C(=O)N[C@H]1CCNC(=O)[C@H](Cc2ccccc2)NC(=O)[C@H](CCN)NC(=O)[C@H](CCN)NC(=O)[C@H](CC(C)C)NC(=O)[C@@H](Cc2ccccc2)NC(=O)[C@H](CCN)NC1=O [compound 5004, 3(R)OH-nC9CO-D-Dab-cyc[L-Dab-L-Dab-D-Phe-L-Leu-L-Dab-L-Dab-L-Phe]] ({Decanoyl(3R-OH)}-[dDab][Dab][Dab][dF]L[Dab][Dab]F; lactam 2-C) | 23 | 8 (≈ 7.42 µM) |  | 4 (≈ 3.71 µM) | 4 (≈ 3.71 µM) | 4 (≈ 3.71 µM) | 4 (≈ 3.71 µM) | 8 (≈ 7.42 µM) |  |  |  |  |  |  |  |  | 2 (≈ 1.85 µM) | 8 (≈ 7.42 µM) | 
5 | CCCCCCC[C@@H](O)CC(=O)N[C@H](CCN)C(=O)N[C@H]1CCNC(=O)[C@H](Cc2ccccc2)NC(=O)[C@H](CCN)NC(=O)[C@H](CCN)NC(=O)[C@H](Cc2ccccc2)NC(=O)[C@@H](Cc2ccccc2)NC(=O)[C@H](CCN)NC1=O [compound 5005, 3(R)OH-nC9CO-D-Dab-cyc[L-Dab-L-Dab-D-Phe-L-Phe-L-Dab-L-Dab-L-Phe]] ({Decanoyl(3R-OH)}-[dDab][Dab][Dab][dF]F[Dab][Dab]F; lactam 2-C) | 54 | 8 (≈ 7.19 µM) |  | >32 | 8 (≈ 7.19 µM) | 4 (≈ 3.6 µM) | 2 (≈ 1.8 µM) | 8 (≈ 7.19 µM) |  |  |  |  |  |  |  |  | 2 (≈ 1.8 µM) |  | 
6 | CCCCCCCCCC(O)CC(=O)N[C@H](CCN)C(=O)N[C@H]1CCNC(=O)[C@H](CC(C)C)NC(=O)[C@H](CCN)NC(=O)[C@H](CCN)NC(=O)[C@H](CC(C)C)NC(=O)[C@@H](Cc2ccccc2)NC(=O)[C@H](CCN)NC1=O (stereo partly drawn) [compound 5014, 3OH-nC11CO-D-Dab-cyc[L-Dab-L-Dab-D-Phe-L-Leu-L-Dab-L-Dab-L-Leu]] (X13-[dDab][Dab][Dab][dF]L[Dab][Dab]L; lactam 2-C) | 19 | 2 (≈ 1.86 µM) |  | 8 (≈ 7.46 µM) | 16 (≈ 14.9 µM) | 4 (≈ 3.73 µM) | 4 (≈ 3.73 µM) | 8 (≈ 7.46 µM) |  |  |  |  |  |  |  | 4 (≈ 3.73 µM) |  | 32 (≈ 29.8 µM) | 4 (≈ 3.73 µM)
7 | CCCCCCC[C@@H](O)CC(=O)N[C@H](CCN)C(=O)N[C@H]1CCNC(=O)[C@H]([C@@H](C)O)NC(=O)[C@H](Cc2ccc(N)cc2)NC(=O)[C@H](CCN)NC(=O)[C@H](CC(C)C)NC(=O)[C@@H](Cc2ccccc2)NC(=O)[C@H](CCN)NC1=O [compound 5605, 3(R)OH-nC9CO-D-Dab-cyc[L-Dab-L-Dab-D-Phe-L-Leu-L-Dab-L-4NH2Phe-L-Thr]] ({Decanoyl(3R-OH)}-[dDab][Dab][Dab][dF]L[Dab][Phe(4-NH2)]T; lactam 2-C) | 115 | 16 (≈ 14.6 µM) |  |  | 16 (≈ 14.6 µM) | 16 (≈ 14.6 µM) | 8 (≈ 7.31 µM) | 32 (≈ 29.2 µM) |  |  |  |  |  |  |  |  |  |  | 
8 | CCCCCCC[C@@H](O)CC(=O)N[C@H](CCN)C(=O)N[C@H]1CCNC(=O)[C@H]([C@@H](C)O)NC(=O)[C@H](CCCNC(=N)N)NC(=O)[C@H](CCN)NC(=O)[C@H](CC(C)C)NC(=O)[C@@H](Cc2ccccc2)NC(=O)[C@H](CCN)NC1=O [compound 5606, 3(R)OH-nC9CO-D-Dab-cyc[L-Dab-L-Dab-D-Phe-L-Leu-L-Dab-L-Arg-L-Thr]] ({Decanoyl(3R-OH)}-[dDab][Dab][Dab][dF]L[Dab]RT; lactam 2-C) | 137 | >32 |  |  | >32 | 32 (≈ 29.4 µM) | 2 (≈ 1.84 µM) | 16 (≈ 14.7 µM) |  |  |  |  |  |  |  |  |  |  | 
